Measured values taken from patent US20120201749A1, “NP-1 Antagonists and Their Therapeutic Use” (priority 2009, published 2012).

Target: NP-1 (Homo sapiens, UniProt O14786)
Assay: Biotinylated-VEGF-A165 (bt-VEGF-A165) binding to NP-1
Conditions: for inhibition at 3 µM: 3 μM compound, read-out: Screen (% inhibition at 3 μM); for inhibition at 30 µM: 30 μM compound, read-out: Screen (% inhibition at 30 μM)
Procedure: Human prostate carcinoma DU145 cells were cultured in growth medium (RPMI 1640 containing 10% FBS and L-glutamine). DU145 cells were seeded at the density of 2×10^4 cells per well (96-well plates) in 0.1 ml growth medium and transfected with adenovirus vectors containing the full-length open-reading frame of human NP-1. The Ad.NP-1-transfected cells grew for 2 days prior to a binding assay.
Confluent Ad.NP-1-transfected cells in 96-well plates were washed twice with phosphate-buffered saline (PBS). The various concentrations of compounds diluted in binding medium (Dulbecco's modified Eagle's medium, 25 mM HEPES pH 7.3 containing 0.1% BSA) were added, followed by addition of 2 nM of bt-VEGF-A165. After 2 h of incubation at room temperature, the medium was aspirated and washed three times with PBS. The bound bt-VEGF-A165 to NP-1 was detected by streptavidin-horseradish peroxidase conjugates and the enzyme substrate, and measured using a Tecan Genios plate reader at A450 nm with a reference wavelength at A595 nm. Non-specific binding was determined in the presence of 100-fold excess unlabelled VEGF-A165.
The 96-well plates were pre-coated with NP1 protein at 3 μg/ml overnight at 4° C. On the following day, the plates were treated with blocking buffer (PBS containing 1% BSA) and washed three times with wash buffer (PBS containing 0.1% Tween-20). The various concentrations of compounds diluted in PBS containing 1% DMSO were added, followed by addition of 0.25 nM of bt-VEGF-A165. After 2 h of incubation at room temperature, the plates were washed three times with wash buffer. The bound bt-VEGF-A165 to NP-1 was detected by streptavidin-horseradish peroxidase conjugates and the enzyme substrate, and measured using a Tecan Genios plate reader at A450 nm with a reference wavelength at A595 nm. Nonspecific binding was determined in the absence of NP-1 coated wells of the plates.

Sequence of NP-1 (O14786 22-923): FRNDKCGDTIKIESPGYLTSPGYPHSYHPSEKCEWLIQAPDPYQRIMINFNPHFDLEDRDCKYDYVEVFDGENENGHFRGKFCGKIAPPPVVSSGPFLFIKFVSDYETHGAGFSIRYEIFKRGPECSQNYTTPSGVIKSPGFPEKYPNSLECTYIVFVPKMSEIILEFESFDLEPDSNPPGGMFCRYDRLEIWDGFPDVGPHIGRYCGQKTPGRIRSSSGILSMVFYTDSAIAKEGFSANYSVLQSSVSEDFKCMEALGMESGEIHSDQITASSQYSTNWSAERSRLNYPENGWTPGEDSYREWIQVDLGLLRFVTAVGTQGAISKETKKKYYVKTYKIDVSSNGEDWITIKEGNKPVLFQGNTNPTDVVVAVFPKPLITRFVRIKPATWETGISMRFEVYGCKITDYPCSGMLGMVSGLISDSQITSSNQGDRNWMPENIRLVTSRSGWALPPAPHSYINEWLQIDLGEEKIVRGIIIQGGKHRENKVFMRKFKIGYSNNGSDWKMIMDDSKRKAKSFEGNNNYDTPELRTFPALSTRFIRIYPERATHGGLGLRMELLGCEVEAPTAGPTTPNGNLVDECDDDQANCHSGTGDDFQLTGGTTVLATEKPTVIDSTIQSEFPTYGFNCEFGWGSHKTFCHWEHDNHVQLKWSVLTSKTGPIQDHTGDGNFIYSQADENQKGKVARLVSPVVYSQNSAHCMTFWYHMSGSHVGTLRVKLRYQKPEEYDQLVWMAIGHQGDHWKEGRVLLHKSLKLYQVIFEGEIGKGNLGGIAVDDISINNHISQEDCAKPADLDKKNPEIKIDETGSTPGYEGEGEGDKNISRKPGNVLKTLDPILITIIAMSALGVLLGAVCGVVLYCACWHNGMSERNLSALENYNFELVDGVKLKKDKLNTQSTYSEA

inhibition at 3 µM	inhibition at 30 µM	IC50	SMILES
71%	93%	–	N=C(N)NCCC[C@H](NC(=O)c1sccc1NS(=O)(=O)c1cccc(NCc2csc(N3CCN(c4ncccn4)CC3)n2)c1)C(=O)O [Compound 66, (S)-5-guanidino-2-{[3-(3-{[2-(4-pyrimidin-2-yl-piperazin-1-yl)-thiazol-4-ylmethyl]-amino}-benzenesulfonylamino)-thiophene-2-carbonyl]-amino}-pentanoic acid]
88%	97%	625 nM	N=C(N)NCCC[C@H](NC(=O)c1sccc1NS(=O)(=O)c1cc(-c2cccc(CN3CCN(c4ccccn4)CC3)c2)cc2c1OCC2)C(=O)O [Compound 27, (S)-5-Guanidino-2-[(3-{5-[3-(4-pyridin-2-yl-piperazin-1-ylmethyl)-phenyl]-2,3-dihydro-benzofuran-7-sulfonylamino}-thiophene-2-carbonyl)-amino]-pentanoic acid]
68%	–	–	N=C(N)NCCC[C@H](NC(=O)c1sccc1NS(=O)(=O)c1cccc(NCc2csc(N3CCN(c4nccs4)CC3)n2)c1)C(=O)O [Compound 76, (S)-5-guanidino-2-{[3-(3-{[2-(4-thiazol-2-yl-piperazin-1-yl)-thiazol-4-ylmethyl]-amino}-benzenesulfonylamino)-thiophene-2-carbonyl]-amino}-pentanoic acid]
70%	98%	–	N=C(N)NCCC[C@H](NC(=O)c1sccc1NS(=O)(=O)c1cc(-c2cccc(CN3CCC(N4CCOCC4)CC3)c2)cc2c1OCC2)C(=O)O [Compound 22, (S)-5-Guanidino-2-[(3-{5-[3-(4-morpholin-4-yl-piperidin-1-ylmethyl)-phenyl]-2,3-dihydro-benzofuran-7-sulfonylamino}-thiophene-2-carbonyl)-amino]-pentanoic acid]
89%	–	142 nM	N=C(N)NCCC[C@H](NC(=O)c1sccc1NS(=O)(=O)c1cc(-c2cccc(CN3CCC(C(=O)O)CC3)c2)cc2c1OCC2)C(=O)O [Compound 3, 1-(3-{7-[2-((S)-1-Carboxy-4-guanidino-butylcarbamoyl)-thiophen-3-ylsulfamoyl]-2,3-dihydro-benzofuran-5-yl}-benzyl)-piperidine-4-carboxylic acid]
70%	96%	319 nM	N=C(N)NCCC[C@H](NC(=O)c1sccc1NS(=O)(=O)c1cccc(NCc2csc(N3CCC(N4CCOCC4)CC3)n2)c1)C(=O)O [Compound 60, (S)-5-guanidino-2-{[3-(3-{[2-(4-morpholin-4-yl-piperidin-1-yl)-thiazol-4-ylmethyl]-amino}-benzenesulfonylamino)-thiophene-2-carbonyl]-amino}-pentanoic acid]
–	100%	591 nM	N=C(N)NCCC[C@H](NC(=O)c1sccc1NS(=O)(=O)c1cc(-c2cccc(CN3CCN(c4cccnc4)CC3)c2)cc2c1OCC2)C(=O)O [Compound 13, (S)-5-Guanidino-2-[(3-{5-[3-(4-pyridin-3-yl-piperazin-1-ylmethyl)-phenyl]-2,3-dihydro-benzofuran-7-sulfonylamino}-thiophene-2-carbonyl)-amino]-pentanoic acid]
100%	–	7 nM	N=C(N)NCCC[C@H](NC(=O)c1sccc1NS(=O)(=O)c1cc(-c2ccccc2CN2CCC(C(=O)O)CC2)cc2c1OCC2)C(=O)O [Compound 1, 1-(2-{7-[2-((S)-1-Carboxy-4-guanidino-butylcarbonyl)-thiophen-3-ylsulfamoyl]-2,3-dihydro-benzofuran-5-yl}-benzyl)-piperidine-4-carboxylic acid]
–	90%	1800 nM	N=C(N)NCCC[C@H](NC(=O)c1sccc1NS(=O)(=O)c1cc(-c2ccccc2CN2CCN(Cc3ccncc3)CC2)cc2c1OCC2)C(=O)O [Compound 8, (S)-5-Guanidino-2-[(3-{5-[2-(4-pyridin-4-ylmethyl-piperazin-1-ylmethyl)-phenyl]-2,3-dihydro-benzofuran-7-sulfonylamino}-thiophene-2-carbonyl)-amino]-pentanoic acid]
52%	–	–	N=C(N)NCCC[C@H](NC(=O)c1sccc1NS(=O)(=O)c1cc(-c2ccccc2CNCc2ccc(O)nc2)cc2c1OCC2)C(=O)O [Compound 49, (S)-5-Guanidino-2-({3-[5-(2-{[(6-hydroxy-pyridin-3-ylmethyl)-amino]-methyl}-phenyl)-2,3-dihydro-benzofuran-7-sulfonylamino]-thiophene-2-carbonyl}-amino)-pentanoic acid]
86%	99%	54 nM	Cc1cc(CNCc2cccc(-c3cc4c(c(S(=O)(=O)Nc5ccsc5C(=O)N[C@@H](CCCNC(=N)N)C(=O)O)c3)OCC4)c2)no1 [Compound 48, (S)-5-Guanidino-2-({3-[5-(3-{[(5-methyl-isoxazol-3-ylmethyl)-amino]-methyl}-phenyl)-2,3-dihydro-benzofuran-7-sulfonylamino]-thiophene-2-carbonyl}-amino)-pentanoic acid]
69%	–	–	CCN(Cc1ccncc1)c1nc(CNc2cccc(S(=O)(=O)Nc3ccsc3C(=O)N[C@@H](CCCNC(=N)N)C(=O)O)c2)cs1 [Compound 73, (S)-2-{[3-(3-{[2-(Ethyl-pyridin-4-ylmethyl-amino)-thiazol-4-ylmethyl]-amino}-benzenesulfonylamino)-thiophene-2-carbonyl]-amino}-5-guanidino-pentanoic acid]
–	96%	1200 nM	N=C(N)NCCC[C@H](NC(=O)c1sccc1NS(=O)(=O)c1cc(-c2cccc(CNCc3cccnc3)c2)cc2c1OCC2)C(=O)O [Compound 12, (S)-5-Guanidino-2-({3-[5-(3-{[(pyridin-3-ylmethyl)-amino]-methyl}-phenyl)-2,3-dihydro-benzofuran-7-sulfonyl-amino]-thiophene-2-carbonyl}-amino)-pentanoic acid]
63%	–	–	N=C(N)NCCC[C@H](NC(=O)c1sccc1NS(=O)(=O)c1cccc(NCc2csc(N3CCN(c4ncncn4)CC3)n2)c1)C(=O)O [Compound 75, (S)-5-guanidino-2-{[3-(3-{[2-(4-[1,3,5]triazin-2-yl-piperazin-1-yl)-thiazol-4-ylmethyl]-amino}-benzenesulfonylamino)-thiophene-2-carbonyl]-amino}-pentanoic acid]
56%	–	–	N=C(N)NCCC[C@H](NC(=O)c1sccc1NS(=O)(=O)c1cc(-c2cccc(CNCc3ccc(N)nc3)c2)cc2c1OCC2)C(=O)O [Compound 40, (S)-2-({3-[5-(3-{[(6-Amino-pyridin-3-ylmethyl)-amino]-methyl}-phenyl)-2,3-dihydro-benzofuran-7sulfonylamino]-thiophene-2-carbonyl}-amino)-5-guanidino-pentanoic acid]
75%	–	–	N=C(N)NCCC[C@H](NC(=O)c1sccc1NS(=O)(=O)c1cc(-c2cccc(CNCc3ccncc3)c2)cc2c1OCC2)C(=O)O [Compound 32, (S)-5-Guanidino-2-({3-[5-(3-{[(pyridin-4-ylmethyl)-amino]-methyl}-phenyl)-2,3-dihydro-benzofuran-7-sulfonylamino]-thiophene-2-carbonyl}-amino)-pentanoic acid]
